Results on eight compounds are retold here after patent US20140212382A1, “PURINE MONOPHOSPHATE PRODRUGS FOR TREATMENT OF VIRAL INFECTIONS” (EMORY UNIVERSITY, priority 2011, published 2014).

One data set concerns HepG2 cells. Particulars: 10 μM; cited from earlier work.
The test system of data set [1] is MtDNA, HepG2 Hepatoma cells. The experiment in a line: Mitochondrial toxicity in HepG2 cells: mitochondrial DNA content. In kind it is cell-based. Conditions: HepG2 Hepatoma cells, 14 day assay; for % Inhibition MtDNA: 10 μM. From the text: A real-time PCR assay to accurately quantify mitochondrial DNA content has been developed (see Stuyver L J, Lostia S, Adams M, Mathew J S, Pai B S, Grier J, Tharnish P M, Choi Y, Chong Y, Choo H, Chu C K, Otto M J, Schinazi R F. Antiviral activities and cellular toxicities of modified 2′,3′-dideoxy-2′,3′-didehydrocytidine analogs. Antimicrob. Agents Chemother. 2002; 46: 3854-60). This assay was used in all studies described in this application that determine the effect of nucleoside analogs on mitochondrial DNA content. In this assay, low-passage-number HepG2 cells were seeded at 5,000 cells/well in collagen-coated 96-well plates. Nucleoside monophosphate analogs were added to the medium to obtain final concentrations of 0 μM, 0.1 μM, 10 μM and 100 μM. On culture day 7, cellular nucleic acids were prepared by using commercially available columns (RNeasy 96 kit; Qiagen). […] The mitochondrial cytochrome c oxidase subunit II (COXII) gene and the β-actin or rRNA gene were amplified from 5 μl of the eluted nucleic acids using a multiplex Q-PCR protocol with suitable primers and probes for both target and reference amplifications. For COXII the following sense, probe and antisense primers are used, respectively: 5′-[…]-3′,5′-tetrachloro-6-carboxyfluorescein-[…]-TAMRA-3′ and 5′-[…]-3′. For exon 3 of the β-actin gene (GenBank accession number E01094) the sense, probe, and antisense primers are 5′-[…]-3′,5′-6-[…]-3′ and 5′-[…]-3′, respectively. The primers and probes for the rRNA gene are commercially available from Applied Biosystems. Since equal amplification efficiencies were obtained for all genes, the comparative CT method was used to investigate potential inhibition of mitochondrial DNA synthesis. The comparative CT method uses arithmetic formulas in which the amount of target (COXII gene) is normalized to the amount of an endogenous reference (the β-actin or rRNA gene) and is relative to a calibrator (a control with no drug at day 7). The arithmetic formula for this approach is given by 2-ΔΔCT, where ΔΔCT is (CT for average target test sample−CT for target control)−(CT for average reference test−CT for reference control) (see Johnson M R, K Wang, J B Smith, M J Heslin, R B Diasio. Quantitation of dihydropyrimidine dehydrogenase expression by real-time reverse transcription polymerase chain reaction. Anal. Biochem. 2000; 278:175-184). A decrease in mitochondrial DNA content in cells grown in the presence of drug would indicate mitochondrial toxicity.
(§1) The effect of compounds 8b-up, 12, and 8a on nuclear or mitochondrial DNA, or lactic acid production, in HepG2 Hepatoma cells was analyzed over a 14 day period. The procedure outlined in section (i) above was used for this analysis.

The subject of a further data set is HepG2 Hepatoma cells. The experiment in a line: Lactic acid production in HepG2 cells. In kind it is cell-based. Particulars: 10 μM, 14 day assay. The protocol:
The effect on the growth of HepG2 cells was determined by incubating cells in the presence of 0 μM, 0.1 μM, 1 μM, 10 μM and 100 μM drug. Cells (5×10^4 per well) were plated into 12-well cell culture clusters in minimum essential medium with nonessential amino acids supplemented with 10% fetal bovine serum, 1% sodium pyruvate, and 1% penicillin/streptomycin and incubated for 4 days at 37° C. At the end of the incubation period the cell number was determined using a hemocytometer. Also taught by Pan-Zhou X-R, Cui L, Zhou X-J, Sommadossi J-P, Darley-Usmer V M. “Differential effects of antiretroviral nucleoside analogs on mitochondrial function in HepG2 cells” Antimicrob. Agents Chemother. 2000; 44: 496-503. […] At day 4 the number of cells in each well was determined and the culture medium collected. The culture medium was filtered, and the lactic acid content in the medium determined using a colorimetric lactic acid assay (Sigma-Aldrich). Since lactic acid product can be considered a marker for impaired mitochondrial function, elevated levels of lactic acid production detected in cells grown in the presence of 2,6-diamino 2′-C-Me purine nucleoside monophosphate prodrug analogs would indicate a drug-induced cytotoxic effect.
The effect of compounds 8b-up, 12, and 8a on nuclear or mitochondrial DNA, or lactic acid production, in HepG2 Hepatoma cells was analyzed over a 14 day period. […]

A short description of data set [2]: Cytotoxicity assay, CEM cells. In kind it is cell-based. Particulars: human. The protocol:
(§2) The toxicity of the compounds was assessed in Vero, human PBM, CEM (human lymphoblastoid), and HepG2 cells, as described previously (see Schinazi R. F., Sommadossi J.-P., Saalmann V., Cannon D. L., Xie M.-Y., Hart G. C., Smith G. A. & Hahn E. F. Antimicrob. Agents Chemother. 1990, 34, 1061-67). Cycloheximide was included as positive cytotoxic control, and untreated cells exposed to solvent would be included as negative controls. The cytotoxicity IC50 was obtained from the concentration-response curve using the median effective method described previously (see Chou T.-C. & Talalay P. Adv. Enzyme Regul. 1984, 22, 27-55; Belen'kii M. S. & Schinazi R. F. Antiviral Res. 1994, 25, 1-11).

Data set [3] in a line: Cytotoxicity assay, Vero cells. The format is cell-based. Particulars: African green monkey. The protocol:
as §2

Data set [4] in a line: Cytotoxicity assay, PBM cells. In kind it is cell-based. Particulars: human. The protocol: as §2
Data set [5] relates to nuclear DNA, HepG2 Hepatoma cells. The experiment in a line: Mitochondrial toxicity in HepG2 cells: nuclear DNA content. Conditions: 10 μM; HepG2 Hepatoma cells, 14 day assay. In kind it is cell-based. The method, then:
This assay was used in all studies described in this application that determine the effect of nucleoside analogs on mitochondrial DNA content. In this assay, low-passage-number HepG2 cells were seeded at 5,000 cells/well in collagen-coated 96-well plates. […] On culture day 7, cellular nucleic acids were prepared by using commercially available columns (RNeasy 96 kit; Qiagen). […] The mitochondrial cytochrome c oxidase subunit II (COXII) gene and the β-actin or rRNA gene were amplified from 5 μl of the eluted nucleic acids using a multiplex Q-PCR protocol with suitable primers and probes for both target and reference amplifications. […] For exon 3 of the β-actin gene (GenBank accession number E01094) the sense, probe, and antisense primers are 5′-[…]-3′,5′-6-[…]-3′ and 5′-[…]-3′, respectively. The primers and probes for the rRNA gene are commercially available from Applied Biosystems. […] The comparative CT method uses arithmetic formulas in which the amount of target (COXII gene) is normalized to the amount of an endogenous reference (the β-actin or rRNA gene) and is relative to a calibrator (a control with no drug at day 7). The arithmetic formula for this approach is given by 2-ΔΔCT, where ΔΔCT is (CT for average target test sample−CT for target control)−(CT for average reference test−CT for reference control) (see Johnson M R, K Wang, J B Smith, M J Heslin, R B Diasio. Quantitation of dihydropyrimidine dehydrogenase expression by real-time reverse transcription polymerase chain reaction. Anal. Biochem. 2000; 278:175-184). A decrease in mitochondrial DNA content in cells grown in the presence of drug would indicate mitochondrial toxicity.
as §1

In a further data set the test system is HCV 1a replicon. Kind of data set: HCV replicon, genotype 1a. In kind it is cell-based. (In general: In antiviral work, replicon cells carry a viral genome segment that copies itself.)
Another data set deals with HCV 1b C316Y replicon. The experiment in a line: HCV resistant replicon 1b C316Y. The format is cell-based.
A further data set relates to HCV 1b replicon. Kind of data set: HCV replicon, genotype 1b. In kind it is cell-based.
Another data set deals with HCV 2a replicon. The experiment in a line: HCV replicon, genotype 2a. In kind it is cell-based.
A further data set deals with HCV 5a chimera replicon. Kind of data set: HCV replicon, 5a chimera. The format is cell-based.
A further data set deals with HCV 4a chimera replicon. Kind of data set: HCV replicon, 4a chimera. The format is cell-based.
Data set [6] concerns HCV Replicon RNA in Huh 7 Clone B cells. The experiment in a line: HCV replicon assay. Conditions: HCV replicon assay. The format is cell-based. The method, then: Huh 7 Clone B cells containing HCV Replicon RNA were seeded in a 96-well plate at 5000 cells/well, and the compounds tested at 10 μM in triplicate immediately after seeding. Following five days incubation (37° C., 5% CO2), total cellular RNA was isolated using the versaGene RNA purification kit from Gentra. Replicon RNA and an internal control (TaqMan rRNA control reagents, Applied Biosystems) were amplified in a single step multiplex Real Time RT-PCR Assay. The antiviral effectiveness of the compounds was calculated by subtracting the threshold RT-PCR cycle of the test compound from the threshold RT-PCR cycle of the no-drug control (ΔCt HCV). A ΔCt of 3.3 equals a 1-log reduction (equal to 90% less starting material) in Replicon RNA levels. The cytotoxicity of the compounds was also calculated using the ΔCt rRNA values. (2′-C-Me-C) was used as the control. To determine EC90 and IC50 values^2, ΔCt: values were first converted into a fraction of the starting material,^3 and then were used to calculate the % inhibition. The data on three compounds (Compound 12, Compound 8a, and compound 8b-up) is shown below in Table 3.

For the next data set, the system named is HCV 1b M414I replicon. The experiment in a line: HCV resistant replicon 1b M414I. The format is cell-based.
For another data set, the system named is HCV 1b S282T replicon. Kind of data set: HCV resistant replicon 1b S282T. In kind it is cell-based.
Another data set concerns HCV 3a chimera replicon. Kind of data set: HCV replicon, 3a chimera. In kind it is cell-based.
For a further data set, the system named is HCV 2b chimera replicon. The experiment in a line: HCV replicon, 2b chimera. The format is cell-based.
Another data set concerns adenosine deaminase. Kind of data set: Adenosine deaminase assay. Particulars: 7 minutes with 0.002 units of enzyme; 50 μM, pH 7.4, 25° C. The format is in vitro ADME. The method, then:
To determine the propensity for deamination of the nucleosides and monophosphate prodrugs by adenosine deaminase, nucleoside analogues can be incubated with the commercially available purified enzyme, and the reaction can be followed spectrophotometrically. Typical reaction conditions involve preparing a solution containing 50 μM nucleoside analog in 0.5 mL 50 mM potassium phosphate (pH 7.4) at 25° C. The typical reaction time is 7 minutes with 0.002 units of enzyme, and 120 minutes with 0.2 units of enzyme. (The unit definition of adenosine deaminase is one unit will deaminate 1.0 μmol of adenosine to inosine per minute at pH 7.5 at 25° C.) Deoxyadenosine is typically used as a positive control. Deoxyadenosine is 59% deaminated under the given conditions in 7 minutes with 0.002 units of enzyme. Deoxyguanosine is typically used as a negative control. Optical density can be measured at 265 nm or 285 nm. The difference in optical density between the beginning and the end of the experiment is divided by the extinction coefficient, and then multiplied by the volume of the reaction to determine the number of mols of substrate transformed into product. Mols of product would be divided by mols of substrate equivalent to a 100% complete reaction then multiplied by 100 to obtain percent deamination. The limit of detection is typically 0.001 optical density units.

Broadly, the CC50 is the concentration at which the toxic effect on the cells reaches its halfway point.

Structures are written as SMILES.

On to `O=c1[nH]c(=O)n([C@@H]2O[C@H](CO)[C@@H](O)[C@@H]2F)cc1I` [fialuridine, 1,2′-deoxy-2′-fluoro-1-D-arabinofuranosly-5-iodo-uracil], for which the “morphological changes in mitochondria (electron micrographs)” value in the data set on HepG2 cells is listed as “presence of enlarged mitochondria with morphological changes consistent with mitochondrial dysfunction”.
In the case of `Nc1ccn([C@@H]2CS[C@H](CO)O2)c(=O)n1` [Compound 3TC, reference compound], the “% Inhibition MtDNA” value in data set [1] is on record as <1/<1%. Besides, the “Lactic acid levels (% of control) ± SD” value in the data set on HepG2 Hepatoma cells is listed as 91 ± 2.5 % of control.
Take `CC1(O)C(O)[C@@H](CO)O[C@H]1n1cnc2c(N)nc(N)nc21` (stereo partly shown) [drawing 52]: the CC50 in data set [2] (CEM lymphoblastoid cells), in data set [3] (Vero cells) and in data set [4] (PBM cells) was greater than 100 µM throughout.
For the compound `Nc1ccn([C@H]2CC[C@@H](CO)O2)c(=O)n1` [ddC, reference compound], the “% Inhibition MtDNA” value in [1] was found to be 100%. The “% Inhibition nuclear DNA” value in [5] was determined as 72%. Further, the “Lactic acid levels (% of control) ± SD” value with HepG2 Hepatoma cells is reported as 220 ± 11 % of control.
Regarding `CCOC(=O)CCc1ccccc1OP(=O)(N[C@H](C)C(=O)OCC)OC[C@H]1O[C@@H](n2cnc3c(N)nc(N)nc32)C(C)(O)C1O` (stereo partly shown) [drawing 54], the CC50 in data set [2] (CEM), in [3] (Vero) and in data set [4] (PBM) was greater than 100 µM each time.
Turning to `CCOC(=O)[C@H](C)NP(=O)(OC[C@H]1O[C@@H](n2cnc3c(N)nc(N)nc32)C(C)(O)C1O)Oc1ccccc1` (stereo partly shown) [drawing 53], the CC50 in data set [2] (CEM), in data set [3] (Vero) and in data set [4] (PBM) was greater than 100 µM throughout.
In the case of `CCOC(=O)CCc1ccccc1OP(=O)(NC(C)C(=O)OCC)OC[C@H]1O[C@@H](n2cnc3c(N)nc(N)nc32)C(C)(O)C1O` (single isomer, unassigned) [Compound 8b-up], the “effect on nuclear or mitochondrial DNA or lactic acid production” value in data set [1] (up to 50 μM, summary also covers nuclear DNA and lactic acid) is reported as “no significant effect”. For the same compound, the “Fold increase versus 1b WT at the EC90” value in the data set on HCV 1a replicon was “++ (++ = 1.1 to 2)”; in the data set on HCV 1b C316Y replicon, “++ (++ = 1.1 to 2)”; in the data set on HCV 1b replicon, “+ (+ = 0.1 to 1)”; in the data set with HCV 2a replicon, “++ (++ = 1.1 to 2)”; with HCV 5a chimera replicon, “++ (++ = 1.1 to 2)”; in the data set with HCV 4a chimera replicon it was “+++ (+++ = 2.1 to 3)”. The “Fold increase versus 1b WT at the EC90” value is reported as “+++ (+++ = 2.1 to 3)” in the data set on HCV 1b M414I replicon, “+ (+ = 0.1 to 1)” in the data set with HCV 1b S282T replicon, “+ (+ = 0.1 to 1)” in the data set on HCV 3a chimera replicon and “++ (++ = 1.1 to 2)” in the data set with HCV 2b chimera replicon. In addition, the “times more potent than 8b-down” value in data set [6] is listed as “approximately 10”.
Turning to `Nc1ncnc2c1ncn2[C@H]1C[C@H](O)[C@@H](CO)O1` [Deoxyadenosine], in the data set with adenosine deaminase, the percent deamination was 59%.
